One assay deals with KB 3-1. Nature of the assay: In vitro cytotoxicity using human epidermoid carcinoma (KB-3-1) cells. In kind it is functional, cell-based.
A further assay concerns KB. Nature of the assay: In vitro cytotoxicity using human epidermoid carcinoma (KB-A1) cells. In kind it is functional, cell-based.
The test system of another assay is L1210. Kind of assay: In vitro cytotoxicity using murine leukemia L1210 cells from american type culture collection. In kind it is functional, cell-based. Conditions: Mus musculus.
The nature of assay [1]: Resistant Factor against MDR cell lines. Value expressed as ratio of IC50 on the resistant cell and on the corresponding sensitive cells. In kind it is functional.

The structures appear in SMILES notation.

As to `COc1cccc2c1C(=O)c1c(O)c3c(c(O)c1C2=O)C[C@@](O)(C(C)=O)C[C@@H]3OC1CC(Cl)C(NC(=O)C(F)(F)F)C(C)O1` (stereo partly specified), the IC50 in the assay with KB 3-1 turned out to be 550 nM; in the assay with KB, 3.79 µM; in the assay with L1210, 500 nM. For the same molecule, in assay [1], the RF was determined as 6.9.
Taken in the same sequence, the figures for `COc1cccc2c1C(=O)c1c(O)c3c(c(O)c1C2=O)C[C@@](O)(C(C)=O)C[C@@H]3OC1CC(Cl)C(N=[N+]=[N-])C(C)O1` (stereo partly specified) were 1610 nM, 2.76 µM, 1370 nM and 1.7.
In the case of `COc1cccc2c1C(=O)c1c(O)c3c(c(O)c1C2=O)C[C@@](O)(C(=O)CO)C[C@@H]3O[C@H]1C[C@H](N)[C@H](O)[C@H](C)O1` [DOXORUBICIN], the IC50 with KB 3-1 was determined as 21 nM; in the assay on KB, 7.01 µM; in the assay on L1210, 33 nM. Moreover, the RF in assay [1] amounted to 333.8.
As to `COc1cccc2c1C(=O)c1c(O)c3c(c(O)c1C2=O)C[C@@](O)(C(C)=O)C[C@@H]3O[C@H]1C[C@H](N)[C@H](O)[C@H](C)O1` [DAUNORUBICIN], the IC50 turned out to be 7 nM in the assay with KB 3-1, 2.07 µM in the assay on KB and 33 nM in the assay with L1210. For the same molecule, in assay [1], the RF was determined as 295.7.

As usually defined, the IC50 is the concentration that inhibits the measured activity by half. High values mean weaker potency, low ones greater potency.

(Values after ChEMBL document CHEMBL1129201, “Synthesis and biological activity of 4-azido- and 4-trifluoracetamido-3-chloro-3-deamino-4-deoxydaunorubicin” (Bioorg Med Chem Lett, 1996).)
